Test results published in patent US20080234262A1 (Wyeth, priority 2007, published 2008).

Assays:
PI3K = PI3K (Homo sapiens, UniProt P42336); assay: Fluorescence polarization assay for PI3K; format: biochemical; settings: PI3Kα; read-out: PI3Kα IC50;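 further: PI3K kinase reaction on PIP2 with ATP, 30-60 min, product sensed by GST-GRP with red probe in fluorescence polarization (mP), controls without enzyme and at zero time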
prostate line LNCap = assay: In vitro cell culture growth assay (MTS), LNCap; format: cell-based, human; settings: LNCap cells, three days after drug treatment
breast line MDA468 = assay: In vitro cell culture growth assay (MTS), MDA468; format: cell-based, human; settings: MDA468 cells, three days after drug treatment
Experimental: Human tumor cell lines used include prostate lines LNCap and PC3MM2, breast lines MDA468, MCF7, renal line HTB44 (A498), colon line HCT116, and ovarian line OVCAR3. Cells were plated in 96-well culture plates. One day following plating, the inhibitors were added to cells. Three days after drug treatment, viable cell densities were determined by metabolic conversion (by viable cells) of the dye MTS, a well established cell proliferation assay. The assays were performed using an assay kit purchased from Promega Corp. (Madison, Wis.) following the protocol supplied with the kit. The MTS assay results were read in a 96-well plate reader by measuring absorbance at 490 nm. The effect of each treatment was calculated as percent of control growth relative to the vehicle-treated cells grown in the same culture plate.

PI3K, sequence (P42336 whole entry): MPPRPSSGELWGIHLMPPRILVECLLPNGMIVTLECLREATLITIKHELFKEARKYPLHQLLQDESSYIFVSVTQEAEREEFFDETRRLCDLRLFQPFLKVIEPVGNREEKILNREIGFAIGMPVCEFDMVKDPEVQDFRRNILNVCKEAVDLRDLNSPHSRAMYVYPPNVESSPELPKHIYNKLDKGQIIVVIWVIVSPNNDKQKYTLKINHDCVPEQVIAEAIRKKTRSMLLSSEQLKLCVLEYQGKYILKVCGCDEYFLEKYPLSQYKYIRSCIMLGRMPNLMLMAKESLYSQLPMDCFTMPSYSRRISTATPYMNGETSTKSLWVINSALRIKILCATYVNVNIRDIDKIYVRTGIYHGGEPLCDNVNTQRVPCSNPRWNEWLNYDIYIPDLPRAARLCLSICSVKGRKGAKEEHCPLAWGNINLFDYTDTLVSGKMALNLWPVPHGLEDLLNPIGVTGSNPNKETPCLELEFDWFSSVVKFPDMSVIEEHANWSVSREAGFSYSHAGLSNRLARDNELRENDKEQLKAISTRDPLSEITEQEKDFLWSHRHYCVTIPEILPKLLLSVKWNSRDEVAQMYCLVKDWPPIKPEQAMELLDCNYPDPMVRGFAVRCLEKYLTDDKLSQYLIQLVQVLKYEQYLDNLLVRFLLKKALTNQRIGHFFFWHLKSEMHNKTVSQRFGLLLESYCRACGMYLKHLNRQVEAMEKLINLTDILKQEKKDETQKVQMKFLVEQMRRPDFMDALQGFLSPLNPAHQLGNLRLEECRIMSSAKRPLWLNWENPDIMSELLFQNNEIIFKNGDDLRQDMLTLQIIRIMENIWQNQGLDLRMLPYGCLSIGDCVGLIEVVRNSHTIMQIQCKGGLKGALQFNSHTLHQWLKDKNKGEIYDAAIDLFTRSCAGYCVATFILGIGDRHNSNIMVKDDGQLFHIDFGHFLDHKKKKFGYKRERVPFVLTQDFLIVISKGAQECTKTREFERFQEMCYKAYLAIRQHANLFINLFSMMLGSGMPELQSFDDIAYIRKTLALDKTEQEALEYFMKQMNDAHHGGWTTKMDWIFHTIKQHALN
PI3K, sequence (P27986 whole entry partner): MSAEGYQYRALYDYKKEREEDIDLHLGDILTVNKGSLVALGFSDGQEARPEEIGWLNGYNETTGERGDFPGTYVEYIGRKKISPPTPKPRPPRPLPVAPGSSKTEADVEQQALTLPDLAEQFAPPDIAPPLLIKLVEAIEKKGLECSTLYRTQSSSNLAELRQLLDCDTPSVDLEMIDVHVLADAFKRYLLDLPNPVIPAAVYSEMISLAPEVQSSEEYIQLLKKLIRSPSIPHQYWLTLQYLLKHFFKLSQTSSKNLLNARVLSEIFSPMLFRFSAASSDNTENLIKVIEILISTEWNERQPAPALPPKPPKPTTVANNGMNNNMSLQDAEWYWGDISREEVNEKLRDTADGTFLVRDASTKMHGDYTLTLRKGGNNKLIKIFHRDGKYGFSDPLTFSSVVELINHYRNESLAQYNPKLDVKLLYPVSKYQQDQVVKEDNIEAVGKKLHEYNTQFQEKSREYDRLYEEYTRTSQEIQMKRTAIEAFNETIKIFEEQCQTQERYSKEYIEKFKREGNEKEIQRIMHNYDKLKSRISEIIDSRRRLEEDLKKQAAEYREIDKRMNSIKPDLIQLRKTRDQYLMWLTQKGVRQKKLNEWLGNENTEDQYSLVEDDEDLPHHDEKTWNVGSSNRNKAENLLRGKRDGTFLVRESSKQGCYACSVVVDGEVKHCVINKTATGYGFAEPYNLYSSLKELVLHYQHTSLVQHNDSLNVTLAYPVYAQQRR

SMILES | IC50 (PI3K) | IC50 (prostate line LNCap; Homo sapiens, LNCaP, 72 h) | IC50 (breast line MDA468; Homo sapiens, 72 h) | further results
CNC(=O)Nc1ccc(-c2nc(N3CCOCC3)c3cnn(C4CCN(C(=O)c5ccccc5)CC4)c3n2)cc1 [Example 336, 1-{4-[1-(1-benzoylpiperidin-4-yl)-4-morpholin-4-yl-1H-pyrazolo[3,4-d]pyrimidin-6-yl]phenyl}-3-methylurea] | 0.07 µM | 0.027 µM | – | –
O=CNc1cccc(-c2nc(N3CCOCC3)c3cnn(C4CCN(Cc5ccccc5)CC4)c3n2)c1 [Example 77] | – | 5.1 µM | 9 µM | –
Nc1cccc(-c2nc(N3CCOCC3)c3cnn(-c4ccccc4)c3n2)n1 [Compound 683, 6-(4-morpholin-4-yl-1-phenyl-1H-pyrazolo[3,4-d]pyrimidin-6-yl)pyridin-2-amine] | – | – | – | IC50 (breast line MDA468): > 60 µM; IC50 (prostate line LNCap): > 60 µM
CCNC(=O)Nc1ccc(-c2nc(N3CCOCC3)c3cnn(C4CCN(C(=O)c5ccccc5)CC4)c3n2)cc1 [Example 381, 1-{4-[1-(1-benzoylpiperidin-4-yl)-4-morpholin-4-yl-1H-pyrazolo[3,4-d]pyrimidin-6-yl]phenyl}-3-ethylurea] | 0.355 µM | 0.027 µM | – | –
COC(=O)Nc1ccc(-c2nc(N3CCOCC3)c3cnn(C4CCN(C(=O)OC)CC4)c3n2)cc1 [Compound 740, methyl 4-(6-{4-[(methoxycarbonyl)amino]phenyl}-4-morpholin-4-yl-1H-pyrazolo[3,4-d]pyrimidin-1-yl)piperidine-1-carboxylate] | – | 0.31 µM | 1.3 µM | –
CNC(=S)Nc1ccc(-c2nc(N3CCOCC3)c3cnn(C4CCN(Cc5cccnc5)CC4)c3n2)cc1 [Compound 622, 1-methyl-3-(4-{4-morpholin-4-yl-1-[1-(pyridin-3-ylmethyl)piperidin-4-yl]-1H-pyrazolo[3,4-d]pyrimidin-6-yl}phenyl)thiourea] | – | 0.07 µM | 0.5 µM | –
c1ccc(-n2ncc3c(N4CCOCC4)nc(-c4csc5ccccc45)nc32)cc1 [Compound 7] | – | 20 µM | 38 µM | –
Cn1ncc2c(N3CCC(n4c(=O)[nH]c5ccccc54)CC3)nc(-c3ccccc3)nc21 [Example 12] | – | 0.75 µM | 12 µM | –
O=C(NCCF)Nc1ccc(-c2nc(N3CCOCC3)c3cnn(C4CCN(Cc5cccnc5)CC4)c3n2)cc1 [Example 315, 1-(2-fluoroethyl)-3-(4-{4-morpholin-4-yl-1-[1-(pyridin-3-ylmethyl)piperidin-4-yl]-1H-pyrazolo[3,4-d]pyrimidin-6-yl}phenyl)urea] | 0.338 µM | 0.027 µM | – | –
CN(C)CC(=O)Nc1ccc(-c2nc(N3CCOCC3)c3cnn(-c4ccccc4)c3n2)cc1 [Compound 135] | – | 3.4 µM | 1.2 µM | –
CN1CCC(C(=O)Nc2ccc(-c3nc(N4CCOCC4)c4cnn(-c5ccccc5)c4n3)cc2)CC1 [Compound 141] | – | 3 µM | 3.8 µM | –
Nc1ccc(-c2nc(N3CCOCC3)c3cnn(C4CCN(Cc5ccccc5)CC4)c3n2)cn1 [Compound 155] | – | 0.1 µM | 1 µM | –
O=CNc1ccc(-c2nc(N3CCOCC3)c3cnn(C4CCN(Cc5ccccc5)CC4)c3n2)cc1 [Compound 485, N-{4-[1-(1-benzylpiperidin-4-yl)-4-morpholin-4-yl-1H-pyrazolo[3,4-d]pyrimidin-6-yl]phenyl}formamide] | – | 1.4 µM | 4.5 µM | –
CNC(=O)Nc1ccc(-c2nc(N3CCOCC3)c3cnn(C4CCN(C(=O)c5cccc(C)c5)CC4)c3n2)cc1 [Example 366, 1-methyl-3-(4-{1-[1-(3-methylbenzoyl)piperidin-4-yl]-4-morpholin-4-yl-1H-pyrazolo[3,4-d]pyrimidin-6-yl}phenyl)urea] | 0.073 µM | 0.027 µM | – | –
N#CN=C(N)Nc1ccc(-c2nc(N3CCOCC3)c3cnn(C4CCN(Cc5cccnc5)CC4)c3n2)cc1 [Example 406, 2-cyano-1-(4-{4-morpholin-4-yl-1-[1-(pyridin-3-ylmethyl)piperidin-4-yl]-1H-pyrazolo[3,4-d]pyrimidin-6-yl}phenyl)guanidine] | – | 1.4 µM | 1.1 µM | –
O=C(Nc1ccc(-c2nc(N3CCOCC3)c3cnn(C4CCN(Cc5cccnc5)CC4)c3n2)cc1)Nc1cccnc1 [Example 314, 1-(4-{4-morpholin-4-yl-1-[1-(pyridin-3-ylmethyl)piperidin-4-yl]-1H-pyrazolo[3,4-d]pyrimidin-6-yl}phenyl)-3-pyridin-3-ylurea] | 0.02 µM | 0.027 µM | – | –

SMILES | IC50 (PI3K) | IC50 (prostate line LNCap; Homo sapiens, LNCaP, 72 h) | IC50 (breast line MDA468; Homo sapiens, 72 h) | further results
O=C(NCCF)Nc1ccc(-c2nc(N3CCOCC3)c3cnn(C4CCN(C(=O)c5ccccc5)CC4)c3n2)cc1 [Example 380, 1-{4-[1-(1-benzoylpiperidin-4-yl)-4-morpholin-4-yl-1H-pyrazolo[3,4-d]pyrimidin-6-yl]phenyl}-3-(2-fluoroethyl)urea] | 0.454 µM | 0.027 µM | – | –
CNC(=O)Nc1ccc(-c2nc(N3CCOCC3)c3cnn(C4CCN(C(=O)c5ccccc5Cl)CC4)c3n2)cc1 [Example 355, 1-(4-{1-[1-(2-chlorobenzoyl)piperidin-4-yl]-4-morpholin-4-yl-1H-pyrazolo[3,4-d]pyrimidin-6-yl}phenyl)-3-methylurea] | 0.079 µM | 0.027 µM | – | –
O=C(Nc1ccncc1)Nc1ccc(-c2nc(N3CCOCC3)c3cnn(C4CCN(C(=O)c5cccnc5)CC4)c3n2)cc1 [Example 344, 1-(4-{4-morpholin-4-yl-1-[1-(pyridin-3-ylcarbonyl)piperidin-4-yl]-1H-pyrazolo[3,4-d]pyrimidin-6-yl}phenyl)-3-pyridin-4-ylurea] | 0.015 µM | 0.027 µM | – | –
CCNC(=O)Nc1ccc(-c2nc(N3CCOCC3)c3cnn(C4CCN(Cc5cccnc5)CC4)c3n2)cc1 [Example 318, 1-ethyl-3-(4-{4-morpholin-4-yl-1-[1-(pyridin-3-ylmethyl)piperidin-4-yl]-1H-pyrazolo[3,4-d]pyrimidin-6-yl}phenyl)urea] | 0.187 µM | 0.027 µM | – | –
O=C(Nc1ccc(-c2nc(N3CCOCC3)c3cnn(C4CCN(C(=O)c5cccnc5)CC4)c3n2)cc1)Nc1cccnc1 [Example 302, 1-(4-{4-morpholin-4-yl-1-[1-(pyridin-3-ylcarbonyl)piperidin-4-yl]-1H-pyrazolo[3,4-d]pyrimidin-6-yl}phenyl)-3-pyridin-3-ylurea] | 0.032 µM | 0.2 µM | – | –
O=C(Nc1ccc(-c2nc(N3CCOCC3)c3cnn(C4CCN(C(=O)c5ccccc5)CC4)c3n2)cc1)Nc1cccnc1 [Example 379, 1-{4-[1-(1-benzoylpiperidin-4-yl)-4-morpholin-4-yl-1H-pyrazolo[3,4-d]pyrimidin-6-yl]phenyl}-3-pyridin-3-ylurea] | 0.035 µM | 0.027 µM | – | –
CCNC(=O)Nc1ccc(-c2nc(N3CCOCC3)c3cnn(C4CCN(Cc5ccccc5)CC4)c3n2)cc1 [Example 253, 1-{4-[1-(1-benzylpiperidin-4-yl)-4-morpholin-4-yl-1H-pyrazolo[3,4-d]pyrimidin-6-yl]phenyl}-3-ethylurea] | – | – | 0.4 µM | –
COC(=O)N1CCC(n2ncc3c(N4CCOCC4)nc(-c4ccc(NC(=O)Nc5ccc(CCO)cc5)cc4)nc32)CC1 [Compound 913, methyl 4-{6-[4-({[4-(2-hydroxyethyl)phenyl]carbamoyl}amino)phenyl]-4-morpholin-4-yl-1H-pyrazolo[3,4-d]pyrimidin-1-yl}piperidine-1-carboxylate] | – | – | 0.0013 µM | –
CN(C)CCNC(=O)Nc1ccc(-c2nc(N3CCOCC3)c3cnn(C4CCN(Cc5ccccc5)CC4)c3n2)cc1 [Compound 268, 1-{4-[1-(1-benzylpiperidin-4-yl)-4-morpholin-4-yl-1H-pyrazolo[3,4-d]pyrimidin-6-yl]phenyl}-3-[2-(dimethylamino)ethyl]urea] | – | – | 0.6 µM | –
CC(C)OC(=O)N1CCC(n2ncc3c(N4CCOCC4)nc(-c4ccc(NC(=O)NCCF)cc4)nc32)CC1 [Compound 833, isopropyl 4-[6-(4-{[(2-fluoroethyl)carbamoyl]amino}phenyl)-4-morpholin-4-yl-1H-pyrazolo[3,4-d]pyrimidin-1-yl]piperidine-1-carboxylate] | – | – | 0.25 µM | –
CNC(=O)Nc1ccc(-c2nc(N3CCOCC3)c3cnn(C4CCN(C(=O)OC(C)(C)C)CC4)c3n2)cc1 [Example 337, tert-butyl 4-(6-{4-[(methylcarbamoyl)amino]phenyl}-4-morpholin-4-yl-1H-pyrazolo[3,4-d]pyrimidin-1-yl)piperidine-1-carboxylate] | – | – | 0.3 µM | –
COC(=O)Nc1ccc(-c2nc(N3CCOCC3)c3cnn(C4CCN(Cc5ccccc5)CC4)c3n2)cc1 [Example 154, methyl {4-[1-(1-benzylpiperidin-4-yl)-4-morpholin-4-yl-1H-pyrazolo[3,4-d]pyrimidin-6-yl]phenyl}carbamate] | – | – | 3 µM | –
CONC(=O)Nc1ccc(-c2nc(N3CCOCC3)c3cnn(C4CCN(Cc5ccccc5)CC4)c3n2)cc1 [Compound 286, 1-{4-[1-(1-benzylpiperidin-4-yl)-4-morpholin-4-yl-1H-pyrazolo[3,4-d]pyrimidin-6-yl]phenyl}-3-methoxyurea] | – | – | 0.2 µM | –
O=C(Nc1ccc(-c2nc(N3CCOCC3)c3cnn(C4CCN(C(=O)c5cccnc5)CC4)c3n2)cc1)Nc1cccs1 [Example 413, 1-(4-{4-morpholin-4-yl-1-[1-(pyridin-3-ylcarbonyl)piperidin-4-yl]-1H-pyrazolo[3,4-d]pyrimidin-6-yl}phenyl)-3-(2-thienyl)urea] | 0.015 µM | 0.035 µM | – | –
O=C(Nc1ccccc1)Nc1ccc(-c2nc(N3CCOCC3)c3cnn(C4CCN(Cc5ccccc5)CC4)c3n2)cc1 [Example 257, 1-{4-[1-(1-benzylpiperidin-4-yl)-4-morpholin-4-yl-1H-pyrazolo[3,4-d]pyrimidin-6-yl]phenyl}-3-phenylurea] | – | – | 1.1 µM | –
